What was measured:
[1] = target: T1, p53 (serine-15 phosphorylation) (Homo sapiens, UniProt P04637); assay: Western blotting for total p53 and phospho serine-15 p53 in peptide-treated HEK 293 cells; assay type: cell-based; conditions: for p53 activation (pSer-15 p53 level): HEK 293, 10 μM peptide, 12 h (FIG. 4A)
T1 construct: HEK 293 (p53^+/+) cells; endogenous in cells; host or cells: HEK 293
Protocol: P44 peptide controls the activity of cell cycle regulatory proteins: The minimal dose of P44 peptide that was functionally effective in activating p53 was evaluated by incubating HEK 293 cells with varying concentrations of P44 peptide (1-100 μM) (FIG. 3A) and after 12 h of incubation, protein lysates were prepared and processed for immunoblotting with total p53 (DO-1) and p53 ser-15 phospho-specific antibodies. […] However, there was a 4.5-fold increase in the expression of phosphorylated p53 (pSerine-15 p53) in P44 peptide-treated cells (FIG. 3A, lanes 2-6). To exclude the possibility that p53 activation is an effect of the protein transduction domain of HIV-1 TAT protein, similar set of experiment was performed using TAT-PTD peptide alone (consisting of only the 11-mer TAT-sequence). […] This observation reconfirmed that the RS domain (288-350 aa) of SMAR1 could exclusively activate p53 by mediating its phosphorylation specifically at serine-15 residue. Serine-15 phosphorylation of p53 is associated with its increased transcription efficiency, decreased affinity for MDM2, and its increased nuclear retention. One of the target genes activated by p53 is p21, an inhibitor of a subset of the cyclin-dependent kinases including cdc-2 (Sherr, C. J., and Roberts, J. M. (1999) Genes Dev. 13, 1501-1512). To evaluate the significance of peptide-mediated p53 activation, P44 peptide-treated lysates were further checked for tyrosine 15 phosphorylation of cdc2. […] HEK 293 cells were treated with SM peptide and checked for p53 as well as pcdc-2 levels.
Serine 347 residue of SMAR1: critical for mediating the effects of full-length SMAR1: Once it was established that the serine motif (SSSSYS) plays a pivotal role in SMAR1-mediated p53 activation, it got necessary to identify the serine residue within this motif that might be necessary in mediating these effects. To identify the critical serine residue within P44 peptide, various point-mutant peptides were custom synthesized, that varied with respect to the position of serine residue that was mutated (Table 1). To evaluate the functionality of mutant chimeric TAT-SMAR1 peptides [PS347A, PS348A, PS349A, PS350A and RS mutant (SM)] in comparison to the TAT-SMAR1 WT peptide (P44), HEK 293 cells were treated with 10 μM concentration of either of the peptides and protein lysates were prepared after 12 h incubation period. The lysates were then processed for immunoblotting with pSer-15 p53 and pcdc-2 antibodies. […] However, this was not the case with other mutated peptides. When the alanine was replaced back to serine at the 347 residue (FIG. 4A, lanes 3-5), the functionality of the peptide was restored as observed with increase in pcdc-2 levels. […] However, in case of SM (where serine residues from 347-350 were replaced by alanines) treated cells (FIG. 4A, lane 7), there was no difference in the pSer-15 p53 as well as pcdc-2 levels compared to either untreated or PS347A treated cells (FIG. 4A, lanes 1 and 2, respectively).
FIG. 3. P44 peptide activates p53-mediated cell cycle pathway. A, HEK 293 cells were seeded at a density of 5×10^5 and after 24 h, was incubated with increasing concentrations of the TAT-SMAR1 WT (P44) peptide. Protein lysates were prepared and then immunoblotted with antibodies to total p53, phospho serine-15. B, The same set of experiment was repeated with TAT PTD peptide representing the PTD carrier sequence alone and immunoblotted with phospho serine-15, in comparison of P44 treated cells. C, The status of phospho cdc-2 was further analyzed in P44 peptide treated cells. Total […] was used as an internal control. D, The same set of experiments were again repeated using TAT-SMAR1 RS mutant (SM) peptide and whole cell lysates were probed for phospho p53 serine-15 and pcdc-2 antibodies. […] was used as a loading control.
FIG. 4. Serine 347 residue of SMAR1 mediates p53 activation and stabilization. […]

[2] = tested on: protein kinase C (PKC) family of proteins; assay: In vitro phosphorylation (kinase) assay with HEK 293 whole cell extract; assay type: biochemical; conditions: for phosphorylation of peptide by extract of staurosporine-treated cells: extract from 293 cells treated with 20 nM staurosporine (PKC inhibitor); for phosphorylation of peptide by whole cell extract: extract from untreated 293 cells
[3] = tested on: p53-driven p21 promoter in HEK 293 (p53+/+) cells; assay: p21 luciferase reporter assay in HEK 293 (p53+/+) cells; assay type: cell-based; conditions: 10 μM peptide, 12 h
Protocol: (§1) TAT-SMAR1 WT peptide (P44) modulates p53 function: To examine whether P44 peptide could alone activate p53^−, luciferase reporter assays were performed following treatment of cells with the chimeric TAT-SMAR1 derived peptides. HEK 293 (p53^+/+) cells were transfected with p21 expression plasmid having luciferase reporter gene and K562 (p53^−/−) cells were co-transfected with p21 luciferase reporter and p53 constructs. […] (FIG. 2A, bar 3) and about 1.5 fold activation in p53^−/− cell line (FIG. 2B, bar 4).
(§2) FIG. 2. P44 peptide activates the p53-driven p21 gene expression in reporter assays. p21 promoter activity was checked in both HEK 293 (p53^+/+) (A) and K562 (P53^−/−) cells (B). Cells were transfected with either pG13 […] reporter plasmid, a p53-driven p21 promoter, in HEK 293 cells or cotransfected with wild-type (wt) p53 in K562 cells. After 24 h post-transfection, cells were treated for 12 h with 10 μM concentration of various TAT-SMAR1 chimeric peptides. Y axis represents the fold luciferase activity (mean±SD of three independent experiments).
(§3) Luciferase reporter assay: HEK 293 (p53^+/+) and K562 (p53^−/−) cells were grown in DMEM supplemented with 10% FBS in the presence of 5% CO2 at 37° C., a total number of 1×10^6, cells were plated on a 6-well plate. After 24 h, cells were transiently transfected using lipofectamine-2000 with either 1 μg of p21 expression plasmid having luciferase reporter gene or 5 μg p21 luciferase along with wt p53 construct in K562 cell line. Two micrograms of pRL-CMV (Renilla luciferase reporter plasmid) was included in all transfections to normalize the transfection efficiency. Thirty six hours post-transfection, cells were treated with 10 μM of either P44 peptide or its various mutants. The cells were harvested 12 h post-treatment, washed with PBS and lysed in 1× Passive lysis buffer (Promega). After three freeze-thaw cycles, cells were spun at 10,000 rpm at 4° C. for 20 min. The supernatants were collected and protein concentrations were estimated spectrophotometrically using Bradford reagent as (BioRad, CA). According to the manufacturer's instructions, luciferase activity was assessed using the dual luciferase assay reporter kit (Promega). The luciferase activity was measured by using Fluoroskan Ascent Luminometer (Labsystems). For all the luciferase assays, the data shown are the mean+SD of three independent experiments.

[4] = tested on: p53-driven p21 promoter in K562 (p53-/-) cells; assay: p21 luciferase reporter assay in K562 (p53-/-) cells; assay type: cell-based; conditions: 10 μM peptide; for activation of p53 (p21 promoter driven luciferase activity): K562 (p53-/-) co-transfected with p21 luciferase reporter and p53 constructs, 12 h
Protocol: as §1, §2, §3

T1 sequence (P04637 whole entry): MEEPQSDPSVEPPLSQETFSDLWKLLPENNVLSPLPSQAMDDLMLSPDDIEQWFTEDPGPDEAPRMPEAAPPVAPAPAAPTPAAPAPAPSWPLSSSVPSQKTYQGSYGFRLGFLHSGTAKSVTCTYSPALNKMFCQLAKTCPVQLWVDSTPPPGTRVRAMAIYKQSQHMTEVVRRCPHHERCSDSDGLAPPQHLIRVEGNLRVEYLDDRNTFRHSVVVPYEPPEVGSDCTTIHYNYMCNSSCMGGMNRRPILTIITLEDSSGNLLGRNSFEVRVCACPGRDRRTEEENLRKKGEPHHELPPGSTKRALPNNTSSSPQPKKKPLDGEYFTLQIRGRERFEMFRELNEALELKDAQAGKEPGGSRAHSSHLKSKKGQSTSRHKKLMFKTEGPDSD

YGRKKRRQRRRTAWRRKQRGQSLAVKSFSRRTPAAAAYSASETM [SM, P44 mutant where serine residues from 347-350 were replaced by alanines]
p53 activation (pSer-15 p53 level) [1]: no difference
expression level of p53 phospho-serine 15 compared to untreated cells ([1]; HEK 293, SM peptide-treated lysates (FIG. 3D)): no increase
phosphorylation of peptide by extract of staurosporine-treated cells [2]: no difference
phosphorylation of peptide by whole cell extract [2]: not and further reduction in its phosphorylation compared to PS347A peptide
activation of p53 (p21 promoter driven luciferase activity) [3]: complete loss
activation of p53 (p21 promoter driven luciferase activity) [4]: complete loss

YGRKKRRQRRRTAWRRKQRGQSLAVKSFSRRTPSSASYSASETM [PS349A, point mutant of P44, serine 349 replaced by alanine]
p53 activation (pSer-15 p53 level) [1]: No significant decrease
phosphorylation of peptide by extract of staurosporine-treated cells [2]: failed to phosphorylate
activation of p53 (p21 promoter driven luciferase activity) [3]: No significant alteration
activation of p53 (p21 promoter driven luciferase activity) [4]: No significant alteration

YGRKKRRQRRRTAWRRKQRGQSLAVKSFSRRTPASSSYSASETM [PS347A, point mutant of P44, serine 347 replaced by alanine]
p53 activation (pSer-15 p53 level) [1]: no significant activation
phosphorylation of peptide by extract of staurosporine-treated cells [2]: no difference
phosphorylation of peptide by whole cell extract [2]: abolished
activation of p53 (p21 promoter driven luciferase activity) [3]: complete loss
activation of p53 (p21 promoter driven luciferase activity) [4]: complete loss

YGRKKRRQRRRTAWRRKQRGQSLAVKSFSRRTPSASSYSASETM [PS348A, point mutant of P44, serine 348 replaced by alanine]
p53 activation (pSer-15 p53 level) [1]: No significant decrease
phosphorylation of peptide by extract of staurosporine-treated cells [2]: failed to phosphorylate
activation of p53 (p21 promoter driven luciferase activity) [3]: No significant alteration
activation of p53 (p21 promoter driven luciferase activity) [4]: No significant alteration

YGRKKRRQRRRTAWRRKQRGQSLAVKSFSRRTPSSSAYSASETM [PS350A, point mutant of P44, serine 350 replaced by alanine]
p53 activation (pSer-15 p53 level) [1]: No significant decrease
phosphorylation of peptide by extract of staurosporine-treated cells [2]: failed to phosphorylate
activation of p53 (p21 promoter driven luciferase activity) [3]: No significant alteration
activation of p53 (p21 promoter driven luciferase activity) [4]: No significant alteration

YGRKKRRQRRRTAWRRKQRGQSLAVKSFSRRTPSSSSYSASETM [P44, 33 mer SMAR1 peptide (residues 324-357) conjugated with 11-mer TAT-PTD]
increase in expression of phosphorylated p53 (pSerine-15 p53) ([1]; HEK 293, P44 1-100 μM, 12 h): 4.5 fold
total p53 expression (DO-1) ([1]; HEK 293, P44 1-100 μM, 12 h): slight increase
phosphorylation of peptide by extract of staurosporine-treated cells [2]: failed to phosphorylate
phosphorylation of peptide by whole cell extract [2]: gets phosphorylated
increased γ-P32 ATP incorporation in comparison to mutant counterpart (SM) ([2]; whole cell extract from untreated 293 cells): 6 to 7 fold
activation of p53 (p21 promoter driven luciferase activity) [3]: 2 fold
p21 promoter luciferase activity with peptide alone ([4]; K562 (p53-/-) cells without p53 construct): no activity
activation of p53 (p21 promoter driven luciferase activity) [4]: about 1.5 fold
